Measured values taken from the METLIN SMRT retention time set (Domingo-Almenara et al. 2019).

experiment: gradient 5% acetonitrile 3 min, to 50% in 2 min, to 85% in 15 min, held 3 min, 100 µL/min; settings: column: Zorbax Extend-C18 2.1 x 50 mm; eluents: water / acetonitrile, 0.1% formic acid
Outline: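 Pure standards were analyzed in mixtures of ~100 molecules using HPLC coupled to a quadrupole time-of-flight mass spectrometer, in both positive and negative ionization mode. Separation used a Zorbax Extend-C18 column (2.1 × 50 mm, 1.8 μm) at 100 μL/min, with water and acetonitrile each containing 0.1% formic acid. Dead and dwell volumes were 40 μL and 900 μL, and data were collected over 3 months. Retention time was read from computationally picked adduct peaks, each inspected manually.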

| RP-LC retention time [s] | SMILES |
| --- | --- |
| 900 | c1cc(-c2noc(-c3cccc4[nH]ccc34)n2)cc(-c2ccn[nH]2)c1 |
| 542 | Cc1nnc2cc(N3CCN(C(=O)Nc4ccccc4F)CC3)cnn12 |
| 1090 | Cc1ccsc1C1C2=C(CC(C)(C)CC2=O)OC2=C1C(=O)CC(C)(C)C2 |
| 696 | CCNC(=O)C1CCN(S(C)(=O)=O)c2cc(C)ccc2O1 (stereo unspecified) |
| 790 | Cc1ccnc(Nc2nc(-c3ccccc3)cs2)c1 |
| 810 | O=C(Nc1cn(-c2ccc(C(=O)N3CCN(c4cccc(Cl)c4)CC3)cc2)cn1)C1CC1 |
| 921 | O=C(NC1CCCCC1)c1ccc2c(c1)N(Cc1ccccc1)C(=O)CO2 |
| 816 | Cc1oc(C2CCN(S(=O)(=O)CCc3ccccc3)CC2)nc1C(=O)N(C)C |
| 883 | Cc1cc(-c2nnc(-c3ccccc3)o2)c(C)n1CC(=O)NC1CCCCC1 |
| 647 | CC(=O)c1cccc(NC(=O)N2CCCN(c3nc4ccccc4n4cccc34)CC2)c1 |
| 1010 | CCn1ccc(C(=O)Nc2ccc(OCc3nnc(-c4ccc(Cl)cc4)o3)cc2)n1 |
| 1300 | Cc1cc(C)cc(NC(=O)Cn2ccc3ccc(-c4nnc(C)o4)cc32)c1 |
| 822 | CCc1noc(NC(C)=O)c1-c1ccc(C)c(S(=O)(=O)Nc2cccc(F)c2)c1 |
| 681 | COCC(=O)N1CCCc2ccc(NC(=O)C3CC(=O)N(c4ccc(F)cc4)C3)cc21 (stereo unspecified) |
| 645 | COc1ccc(CC(=O)Nc2c(-c3ccc(F)cc3)nc3ccccn23)cc1 |
| 592 | COCc1cn(C2CN(C(=O)c3cnc(C)cn3)C2)nn1 |
| 582 | COc1ccc(N2CC(C(=O)N3CCN(c4ccccn4)CC3)CC2=O)cc1 (stereo unspecified) |
| 1200 | CCN1C(=O)C2(CCN(S(=O)(=O)c3ccc(Cl)cc3C)CC2)c2ccccc21 |
| 683 | COc1cccc(CNC(=O)C2CCN(c3nnc4c(Cl)cccn34)CC2)c1 |
| 1290 | O=C(Nc1ccc(Cl)cc1)C1CCCN(c2nc3ccccc3nc2C(F)(F)F)C1 (stereo unspecified) |
| 776 | O=C1NC2(CCN(C(=O)c3ccccc3Cl)CC2)N=C1c1cccc(F)c1 |
| 1140 | Clc1nccc2c1ccc1ccccc12 |

| RP-LC retention time [s] | SMILES |
| --- | --- |
| 807 | CCSc1ccc(Cc2nnc(NC(=O)c3cccs3)o2)cc1 |
| 870 | O=C(CCc1nc(CSc2nnc(-c3ccccc3)o2)no1)Nc1ccccc1F |
| 726 | Cc1ccc2nc(-c3ccccc3)c(Nc3ccccc3C)n2c1 |
| 743 | CCN1C(=O)C(CC(=O)NC2CCCCC2)Sc2ncccc21 (stereo unspecified) |
| 643 | CCn1c(=O)n(CC)c2cc(N3CCCC3)c(NC(=O)NCc3ccc(OC)cc3)cc21 |
| 693 | CN1CCN(c2ccc(-c3cccc(NC(=O)c4ccccc4F)c3)nn2)CC1 |
| 744 | COc1cc(NC(=O)c2ccc(-n3cnc(NC(=O)C4CC4)c3)cc2)cc(OC)c1 |
| 877 | NS(=O)(=O)c1ccc(NC(=O)c2ccc(S(=O)(=O)c3ccc(Cl)cc3)s2)cc1 |
| 741 | CCCNC(=O)C1CCCN(c2ccc(SCC(=O)Nc3cccc(C(=O)OCC)c3)nn2)C1 (stereo unspecified) |
| 1010 | CCCC(=O)Nc1ccc(-c2nc(-c3ccccc3)co2)cc1 |
| 747 | O=C(C1CCN(c2cnc3nccnc3c2)CC1)N1CCN(c2ccccc2F)CC1 |
| 673 | O=S(=O)(NC1CCCCC1)c1ccc2c(c1)-c1oncc1CO2 |
| 739 | CCN1C(=O)CCc2cc(NC(=O)c3cncc(Br)c3)ccc21 |
| 681 | O=C(Nc1cccs1)N1CC(c2nc(C3CC3)no2)C1 |
| 791 | Cc1cc(C(=O)N2CCCn3nc(-c4cccs4)cc3C2)no1 |
| 831 | CCOC(=O)Cn1cccc(S(=O)(=O)N2CCCCCC2)c1=O |
| 828 | Cc1nc2ccn(Cc3ccco3)c(=O)c2cc1C(=O)NCCC1=CCCCC1 |
| 782 | COc1ccc(CCS(=O)(=O)Nc2ccc(CC(=O)NCc3cccs3)cc2)cc1 |
| 661 | CCCNc1cc(N2CCC(CCC(=O)NCc3cccs3)CC2)ncn1 |
| 866 | Cc1ccc(NC(=O)Cn2nc(C)cc2C(=O)Nc2ccc3c(c2)OCO3)cc1 |
| 510 | CNC(=O)[C@@H]1C[C@H](Oc2cccnc2)CN1C(=O)c1ccc2ncccc2c1 |
| 809 | Cc1nn(CC(=O)N2CCOCC2)c(=O)c2c(-n3cccc3)n(-c3ccc(F)cc3)nc12 |

| RP-LC retention time [s] | SMILES |
| --- | --- |
| 668 | COCCOC1CCN(C(=O)Nc2ccc3c(c2)OCCO3)CC1 |
| 1030 | Cc1ccc(S(=O)(=O)N2CCOCC2)cc1-c1nnc(-c2ccc(Cl)cc2)o1 |
| 1020 | COCCCn1c(=O)c2ccccc2n(Cc2nc(-c3ccccc3C)no2)c1=O |
| 675 | CCS(=O)(=O)N1CCOc2ccc(CCC(=O)NC3CC3)cc2C1 |
| 909 | O=C(Nc1nc2ccccc2s1)C1CCCN(c2ncnc3c2nc2n3CCCCC2)C1 (stereo unspecified) |
| 970 | CC(C)Cn1cc(CCNC(=O)Nc2ccc(C(F)(F)F)cc2)c2cccnc21 |
| 1000 | O=C1C2N=NN(Cc3nc(-c4ccc5c(c4)OCO5)no3)C2C(=O)N1c1ccc2c(c1)CCC2 (stereo unspecified) |
| 837 | O=S(=O)(c1ccccc1)c1nnn2c1nc(NCc1ccc(F)cc1)c1sccc12 |
| 1310 | CCCN(C(=O)c1ccccc1OC)c1nc(-c2ccccc2)cs1 |
| 836 | CCOC(=O)c1c(C)[nH]c(C(=O)N2CCC(CC(=O)N3CCN(c4ccccc4)CC3)CC2)c1C |
| 873 | CC1=C(c2ccccc2)S(=O)(=O)N=C1N1CCCN(C(=O)C(C)c2ccccc2)CC1 (stereo unspecified) |
| 749 | Cc1ncsc1C1N(C2CCN(C(=O)Nc3ccccc3)CC2)C(=O)C12CCCC2 (stereo unspecified) |
| 1290 | Cc1ccccc1-c1noc(C2CCCN2S(=O)(=O)c2ccc(Cl)cc2C)n1 (stereo unspecified) |
| 655 | COc1ccc(C(=O)N2CCCC2c2cc(C)on2)cc1OC (stereo unspecified) |
| 1100 | O=S(=O)(Cc1ccc(Cl)cc1)N1CCc2nc(-c3ccc(F)cc3)ncc2C1 |
| 702 | Cn1nc(N2CCCC(NS(=O)(=O)Cc3ccccc3)C2)ccc1=O (stereo unspecified) |
| 840 | CCc1nc2cc(N3CCC(C(=O)NCc4ccccc4F)CC3)cnc2nc1CC |
| 730 | COc1cc(OC)c(NC(=O)C2=C(C)C(=O)OC23CCN(C(C)=O)CC3)cc1Cl |
| 735 | Cc1ccc(F)c(NC(=O)C2CCc3nc(N4CCOCC4)ncc3C2)c1 (stereo unspecified) |
| 834 | COc1ccc(C(=O)N2CCC(COc3ccc(C(=O)NC(C)C)cc3)CC2)cc1F |
| 889 | CCCn1cc(CCNC(=O)Nc2cccc(Cl)c2C)c2cccnc21 |

| SMILES | RP-LC retention time [s] |
| --- | --- |
| CCCNC(=O)N1[C@H]2CC[C@@H]1c1cnc(-c3ccc(F)cc3)nc1C2 | 829 |
